Converted amounts (≈) assume the structure as drawn.
What was measured:
[1] = Dissolving DHEA in water with amphiphilic block copolymers (film hydration, centrifugation, HPLC assay of supernatant); format: physicochemical; details: 25 °C, thermodynamic from solid, no polymer ("natural" solubility)
Protocol: (§1) The measurement is performed by UV spectrometry or HPLC on an aqueous solution, prepared beforehand, of from 20 to 80° C. for 2 hours, followed by cooling to 25° C. The assay is performed 24 hours after this preparation on the supernatant obtained after centrifuging the suspension to remove all crystals, or on the pellet in the case of solubilization of oily molecules, the centrifugation resulting in creaming of the portion that is not encapsulated in the micelles.
(§2) The solubility gain is calculated relative to the “natural” solubility of the lipophilic compound in water.

[2] = Dissolving Parsol 1789 in water with amphiphilic block copolymers (film hydration, centrifugation, HPLC assay of supernatant); format: physicochemical; details: 25 °C, thermodynamic from solid, no polymer ("natural" solubility)
Protocol: as §1
The supernatant, which should not contain any crystals that may be identified using an optical microscope in polarized light, is taken up and then assayed by HPLC.
as §2

Compound	solubility at 24 h [1] [µg/mL]	solubility at 24 h [2] [µg/mL]
C[C@]12CC[C@H](O)CC1=CC[C@@H]1[C@@H]2CC[C@]2(C)C(=O)CC[C@@H]12 [DHEA, dehydroepiandrosterone]	1 (≈ 3.47 µM)	–
COc1ccc(C(=O)CC(=O)c2ccc(C(C)(C)C)cc2)cc1 [Parsol 1789, 4-(tert-butyl)-4′-methoxydibenzoylmethane]	–	1 (≈ 3.22 µM)
